Experimental data published in PubChem BioAssay AID2060601 (Molecular Pharmacology Branch, DTP, NCI, 2025).
pIC50: −log10 of the molar value.

Tested on: 874868-142-R-J2-PDC complex spheroids, growth % test/control
Test: Anticancer human tumor 874868-142-R-J2-PDC patient-derived head and neck squamous carcinoma cell line growth inhibition [CLK]
Details: for pIC50: curve of first compound; for viability, T/C: stronger effect = lower value
How it was run: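 Patient-derived tumor cells grown as complex spheroids with HUVEC endothelial cells and mesenchymal stem cells, treated with drug combinations. Concentrations descend in half-log steps from near clinical Cmax, or from 10 microM if Cmax unknown.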

[1] = second compound 0.0316 µM, first compound 0.0316 µM
[2] = second compound 0.0316 µM, first compound 0.1 µM
[3] = second compound 0.0316 µM, first compound 0.316 µM
[4] = second compound 0.0316 µM, first compound 1 µM
[5] = second compound 0.0316 µM, first compound 3.16 µM
[6] = second compound 0.0316 µM, first compound 10 µM
[7] = second compound 0.1 µM, first compound 0.0316 µM
[8] = second compound 0.1 µM, first compound 0.1 µM
[9] = second compound 0.1 µM, first compound 0.316 µM
[10] = second compound 0.1 µM, first compound 1 µM
[11] = second compound 0.1 µM, first compound 3.16 µM
[12] = second compound 0.1 µM, first compound 10 µM
[13] = second compound 0.316 µM, first compound 0.0316 µM
[14] = second compound 0.316 µM, first compound 0.1 µM
[15] = second compound 0.316 µM, first compound 0.316 µM
[16] = second compound 0.316 µM, first compound 1 µM
[17] = second compound 0.316 µM, first compound 3.16 µM
[18] = second compound 0.316 µM, first compound 10 µM
[19] = second compound 1 µM, first compound 0.0316 µM
[20] = second compound 1 µM, first compound 0.1 µM
[21] = second compound 1 µM, first compound 0.316 µM
[22] = second compound 1 µM, first compound 1 µM
[23] = second compound 1 µM, first compound 3.16 µM
[24] = second compound 1 µM, first compound 10 µM
[25] = second compound 3.16 µM, first compound 0.0316 µM
[26] = second compound 3.16 µM, first compound 0.1 µM
[27] = second compound 3.16 µM, first compound 0.316 µM
[28] = second compound 3.16 µM, first compound 1 µM
[29] = second compound 3.16 µM, first compound 3.16 µM
[30] = second compound 3.16 µM, first compound 10 µM
[31] = second compound 10 µM, first compound 0.0316 µM
[32] = second compound 10 µM, first compound 0.1 µM
[33] = second compound 10 µM, first compound 0.316 µM
[34] = second compound 10 µM, first compound 1 µM
[35] = second compound 10 µM, first compound 3.16 µM
[36] = second compound 10 µM, first compound 10 µM
[37] = second compound 0.0316 µM, first compound 0.00316 µM
[38] = second compound 0.0316 µM, first compound 0.01 µM
[39] = second compound 0.1 µM, first compound 0.00316 µM
[40] = second compound 0.1 µM, first compound 0.01 µM
[41] = second compound 0.316 µM, first compound 0.00316 µM
[42] = second compound 0.316 µM, first compound 0.01 µM
[43] = second compound 1 µM, first compound 0.00316 µM
[44] = second compound 1 µM, first compound 0.01 µM
[45] = second compound 3.16 µM, first compound 0.00316 µM
[46] = second compound 3.16 µM, first compound 0.01 µM
[47] = second compound 10 µM, first compound 0.00316 µM
[48] = second compound 10 µM, first compound 0.01 µM
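Also: spheroids exposed to the compounds for 7 days.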
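For viability, T/C in this document: 100% = DMSO vehicle control viability.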

CC(=O)O[C@H]1C(=O)[C@@]2(C)[C@H]([C@H](OC(=O)c3ccccc3)[C@]3(O)C[C@H](OC(=O)[C@H](O)[C@@H](NC(=O)c4ccccc4)c4ccccc4)C(C)=C1C3(C)C)[C@]1(OC(C)=O)CO[C@@H]1C[C@@H]2O + CNC(=O)c1ccc(Nc2nc(OC3CCCC3)c3c(-c4ccc5nc(C)oc5c4)c[nH]c3n2)c(OC)c1
pIC50 (second compound 0.0316 µM): > 7.50
pIC50 (second compound 0.1 µM): > 7.50
pIC50 (second compound 0.316 µM): < 5.00
pIC50 (second compound 1 µM): > 7.50
pIC50 (second compound 3.16 µM): > 7.50
pIC50 (second compound 10 µM): > 7.50
viability, T/C [1]: 47.4%
viability, T/C [2]: 33.5%
viability, T/C [3]: 39.4%
viability, T/C [4]: 41.9%
viability, T/C [5]: 48.9%
viability, T/C [6]: 66.2%
viability, T/C [7]: 53.9%
viability, T/C [8]: 43.9%
viability, T/C [9]: 50%
viability, T/C [10]: 55.7%
viability, T/C [11]: 62.7%
viability, T/C [12]: 66.5%
viability, T/C [13]: 54.3%
viability, T/C [14]: 65.1%
viability, T/C [15]: 72.6%
viability, T/C [16]: 66.5%
viability, T/C [17]: 77.6%
viability, T/C [18]: 70.1%
viability, T/C [19]: 47.1%
viability, T/C [20]: 49.9%
viability, T/C [21]: 53%
viability, T/C [22]: 62.3%
viability, T/C [23]: 52.6%
viability, T/C [24]: 61.9%
viability, T/C [25]: 47.8%
viability, T/C [26]: 45.7%
viability, T/C [27]: 52.4%
viability, T/C [28]: 51%
viability, T/C [29]: 57.5%
viability, T/C [30]: 64.3%
viability, T/C [31]: 43.7%
viability, T/C [32]: 53%
viability, T/C [33]: 58.3%
viability, T/C [34]: 52.4%
viability, T/C [35]: 57.6%
viability, T/C [36]: 50.5%

CCc1c2c(nc3ccc(O)cc13)-c1cc3c(c(=O)n1C2)COC(=O)[C@]3(O)CC + CNC(=O)c1ccc(Nc2nc(OC3CCCC3)c3c(-c4ccc5nc(C)oc5c4)c[nH]c3n2)c(OC)c1
pIC50 (second compound 0.0316 µM): 7.93
pIC50 (second compound 0.1 µM): 8.40
pIC50 (second compound 0.316 µM): > 8.50
pIC50 (second compound 1 µM): > 8.50
pIC50 (second compound 3.16 µM): > 8.50
pIC50 (second compound 10 µM): > 8.50
viability, T/C [37]: 63.6%
viability, T/C [38]: 44%
viability, T/C [1]: 47.1%
viability, T/C [2]: 28%
viability, T/C [3]: 11.6%
viability, T/C [4]: 2.44%
viability, T/C [39]: 50.4%
viability, T/C [40]: 47.8%
viability, T/C [7]: 35.7%
viability, T/C [8]: 28.2%
viability, T/C [9]: 16.6%
viability, T/C [10]: 2.97%
viability, T/C [41]: 42.9%
viability, T/C [42]: 37.9%
viability, T/C [13]: 34.4%
viability, T/C [14]: 19.6%
viability, T/C [15]: 11.3%
viability, T/C [16]: 4.87%
viability, T/C [43]: 31%
viability, T/C [44]: 26.8%
viability, T/C [19]: 15.1%
viability, T/C [20]: 11.6%
viability, T/C [21]: 7.96%
viability, T/C [22]: 1.98%
viability, T/C [45]: 24.7%
viability, T/C [46]: 20.7%
viability, T/C [25]: 15.3%
viability, T/C [26]: 12.4%
viability, T/C [27]: 12.8%
viability, T/C [28]: 4.03%
viability, T/C [47]: 28.8%
viability, T/C [48]: 21.6%
viability, T/C [31]: 14%
viability, T/C [32]: 11.2%
viability, T/C [33]: 9.57%
viability, T/C [34]: 9.34%

Cn1ncnc1[C@H]1c2n[nH]c(=O)c3cc(F)cc(c23)N[C@@H]1c1ccc(F)cc1 + CNC(=O)c1ccc(Nc2nc(OC3CCCC3)c3c(-c4ccc5nc(C)oc5c4)c[nH]c3n2)c(OC)c1
pIC50 (second compound 0.0316 µM): < 7.00
pIC50 (second compound 0.1 µM): < 7.00
pIC50 (second compound 0.316 µM): < 7.00
pIC50 (second compound 1 µM): > 9.50
pIC50 (second compound 3.16 µM): > 9.50
pIC50 (second compound 10 µM): > 9.50
viability, T/C (second compound 0.0316 µM, first compound 0.000316 µM): 97.6%
viability, T/C (second compound 0.0316 µM, first compound 0.001 µM): 92.7%
viability, T/C [37]: 102%
viability, T/C [38]: 94.6%
viability, T/C [1]: 85.1%
viability, T/C [2]: 73.7%
viability, T/C (second compound 0.1 µM, first compound 0.000316 µM): 85%
viability, T/C (second compound 0.1 µM, first compound 0.001 µM): 68.8%
viability, T/C [39]: 90.1%
viability, T/C [40]: 79.2%
viability, T/C [7]: 73.5%
viability, T/C [8]: 66.6%
viability, T/C (second compound 0.316 µM, first compound 0.000316 µM): 61.4%
viability, T/C (second compound 0.316 µM, first compound 0.001 µM): 54.3%
viability, T/C [41]: 51.5%
viability, T/C [42]: 56.3%
viability, T/C [13]: 59.7%
viability, T/C [14]: 46.3%
viability, T/C (second compound 1 µM, first compound 0.000316 µM): 42.7%
viability, T/C (second compound 1 µM, first compound 0.001 µM): 50.8%
viability, T/C [43]: 40.6%
viability, T/C [44]: 36.9%
viability, T/C [19]: 40.8%
viability, T/C [20]: 40.7%
viability, T/C (second compound 3.16 µM, first compound 0.000316 µM): 44.5%
viability, T/C (second compound 3.16 µM, first compound 0.001 µM): 36.2%
viability, T/C [45]: 39.2%
viability, T/C [46]: 39%
viability, T/C [25]: 44%
viability, T/C [26]: 34%
viability, T/C (second compound 10 µM, first compound 0.000316 µM): 44%
viability, T/C (second compound 10 µM, first compound 0.001 µM): 40.5%
viability, T/C [47]: 39.4%
viability, T/C [48]: 39.5%
viability, T/C [31]: 47.6%
viability, T/C [32]: 31%

Nc1ccn(C2OC(CO)C(O)C2(F)F)c(=O)n1 (stereo not given) + CNC(=O)c1ccc(Nc2nc(OC3CCCC3)c3c(-c4ccc5nc(C)oc5c4)c[nH]c3n2)c(OC)c1
pIC50 (second compound 0.0316 µM): 6.19
pIC50 (second compound 0.1 µM): 6.29
pIC50 (second compound 0.316 µM): 6.79
pIC50 (second compound 1 µM): > 7.50
pIC50 (second compound 3.16 µM): > 7.50
pIC50 (second compound 10 µM): > 7.50
viability, T/C [1]: 108%
viability, T/C [2]: 80.2%
viability, T/C [3]: 56.3%
viability, T/C [4]: 46.7%
viability, T/C [5]: 41.6%
viability, T/C [6]: 43.5%
viability, T/C [7]: 80.6%
viability, T/C [8]: 97.9%
viability, T/C [9]: 57.8%
viability, T/C [10]: 42.3%
viability, T/C [11]: 42.9%
viability, T/C [12]: 33.8%
viability, T/C [13]: 56.4%
viability, T/C [14]: 53.7%
viability, T/C [15]: 48%
viability, T/C [16]: 35.3%
viability, T/C [17]: 35%
viability, T/C [18]: 22.3%
viability, T/C [19]: 42.9%
viability, T/C [20]: 37.5%
viability, T/C [21]: 33.6%
viability, T/C [22]: 23.1%
viability, T/C [23]: 26.2%
viability, T/C [24]: 18%
viability, T/C [25]: 40%
viability, T/C [26]: 42.1%
viability, T/C [27]: 30.3%
viability, T/C [28]: 23.8%
viability, T/C [29]: 22.7%
viability, T/C [30]: 16.5%
viability, T/C [31]: 39.2%
viability, T/C [32]: 36.8%
viability, T/C [33]: 33.7%
viability, T/C [34]: 25.5%
viability, T/C [35]: 19.4%
viability, T/C [36]: 23.1%

O=c1[nH]cc(F)c(=O)[nH]1 + CNC(=O)c1ccc(Nc2nc(OC3CCCC3)c3c(-c4ccc5nc(C)oc5c4)c[nH]c3n2)c(OC)c1
pIC50 (second compound 0.0316 µM): < 5.00
pIC50 (second compound 0.1 µM): 5.70
pIC50 (second compound 0.316 µM): 6.34
pIC50 (second compound 1 µM): > 7.50
pIC50 (second compound 3.16 µM): > 7.50
pIC50 (second compound 10 µM): > 7.50
viability, T/C [1]: 81.8%
viability, T/C [2]: 86%
viability, T/C [3]: 71.7%
viability, T/C [4]: 61.1%
viability, T/C [5]: 54.7%
viability, T/C [6]: 50.7%
viability, T/C [7]: 74%
viability, T/C [8]: 68.9%
viability, T/C [9]: 75.8%
viability, T/C [10]: 56.4%
viability, T/C [11]: 50.2%
viability, T/C [12]: 41.5%
viability, T/C [13]: 54%
viability, T/C [14]: 59.2%
viability, T/C [15]: 55.9%
viability, T/C [16]: 34.9%
viability, T/C [17]: 39.4%
viability, T/C [18]: 39.2%
viability, T/C [19]: 43.5%
viability, T/C [20]: 48.6%
viability, T/C [21]: 40.1%
viability, T/C [22]: 29.4%
viability, T/C [23]: 30.1%
viability, T/C [24]: 26%
viability, T/C [25]: 34.9%
viability, T/C [26]: 39.7%
viability, T/C [27]: 29%
viability, T/C [28]: 28.4%
viability, T/C [29]: 28.7%
viability, T/C [30]: 31.9%
viability, T/C [31]: 40.2%
viability, T/C [32]: 46%
viability, T/C [33]: 35.9%
viability, T/C [34]: 23.4%
viability, T/C [35]: 30.8%
viability, T/C [36]: 23.2%
